Strand notation (5' to 3'): a small letter for the sugar, then the base; units joined by * are phosphorothioate-linked, units joined directly phosphodiester-linked; [ ] holds rarer units or linkages, { } end groups; capitals alone tell only the bases. d = 2'-deoxy (DNA)
Experiments:
Type in all cases: cell-based, human
[1] = tested on: T24 bladder cell carcinoma; test: Relative colony forming efficiency after antisense treatment (Table 13); conditions: 0.2 μM antisense oligodeoxyribonucleotide phosphorothioate; T24 cells; averages of 2-8 determinations
[2] = tested on: HCT116 colon cell carcinoma; test: as above; conditions: 0.2 μM antisense oligodeoxyribonucleotide phosphorothioate; HCT116 cells; averages of 2-8 determinations
A549 lung cell carcinoma = test: as above; conditions: 0.2 μM antisense oligodeoxyribonucleotide phosphorothioate; A549 cells; averages of 2-8 determinations
[3] = tested on: MIA PaCa-2 pancreatic cell carcinoma; test: as above; conditions: 0.2 μM antisense oligodeoxyribonucleotide phosphorothioate; MIA PaCa-2 cells; averages of 2-8 determinations
[4] = tested on: PC-3 prostrate cell adenocarcinoma; test: as above; conditions: 0.2 μM antisense oligodeoxyribonucleotide phosphorothioate; PC-3 cells; averages of 2-8 determinations
[5] = tested on: HepG2 hepatocellular carcinoma; test: Relative colony forming efficiency after antisense treatment (Table 13, FIG. 12); conditions: 0.2 μM antisense oligodeoxyribonucleotide phosphorothioate; HepG2 cells; averages of 2-8 determinations

AAGCGGCGGGGGTTTTCTCT (dA*dA*dG*dC*dG*dG*dC*dG*dG*dG*dG*dG*dT*dT*dT*dT*dC*dT*dC*dT; antisense) [AS-II-414-20]
Reduced relative colony forming efficiency, expressed as % inhibition, T24 [1]: 11.67%
Reduced relative colony forming efficiency, expressed as % inhibition, HCT116 [2]: 19.1%
Reduced relative colony forming efficiency, expressed as % inhibition, A549 (A549 lung cell carcinoma): 12.44%
Reduced relative colony forming efficiency, expressed as % inhibition, MIA PaCa-2 [3]: 36.11%
Reduced relative colony forming efficiency, expressed as % inhibition, PC-3 [4]: 60.94%
Reduced relative colony forming efficiency, expressed as % inhibition, HepG2 [5]: 30.89%

ACTGCCATTGTCACTGCTAT (DNA, all phosphorothioate, methylation of C not given here) [AS-II-1581-20]
Reduced relative colony forming efficiency, expressed as % inhibition, T24 [1]: 68.22%
Reduced relative colony forming efficiency, expressed as % inhibition, HCT116 [2]: 66.85%
Reduced relative colony forming efficiency, expressed as % inhibition, A549 (A549 lung cell carcinoma): 90.55%
Reduced relative colony forming efficiency, expressed as % inhibition, MIA PaCa-2 [3]: 24.07%
Reduced relative colony forming efficiency, expressed as % inhibition, PC-3 [4]: 85.83%
Reduced relative colony forming efficiency, expressed as % inhibition, HepG2 [5]: 93.07%

AGCCTCTGCCTTCTTATACA (dA*dG*dC*dC*dT*dC*dT*dG*dC*dC*dT*dT*dC*dT*dT*dA*dT*dA*dC*dA; antisense) [AS-II-472-20]
Reduced relative colony forming efficiency, expressed as % inhibition, T24 [1]: 69.26%
Reduced relative colony forming efficiency, expressed as % inhibition, HCT116 [2]: 67.23%
Reduced relative colony forming efficiency, expressed as % inhibition, A549 (A549 lung cell carcinoma): 96.99%
Reduced relative colony forming efficiency, expressed as % inhibition, MIA PaCa-2 [3]: 97.13%
Reduced relative colony forming efficiency, expressed as % inhibition, PC-3 [4]: 90.7%

ATCCAGCGCAAGGCCCAGTC (antisense; DNA, all phosphorothioate, methylation of C not given here) [AS-II-816-20]
Reduced relative colony forming efficiency, expressed as % inhibition, T24 [1]: 73.91%
Reduced relative colony forming efficiency, expressed as % inhibition, HCT116 [2]: 88.22%
Reduced relative colony forming efficiency, expressed as % inhibition, A549 (A549 lung cell carcinoma): 78.4%
Reduced relative colony forming efficiency, expressed as % inhibition, MIA PaCa-2 [3]: 93.21%
Reduced relative colony forming efficiency, expressed as % inhibition, PC-3 [4]: 94.08%
Reduced relative colony forming efficiency, expressed as % inhibition, HepG2 [5]: 93.08%

ATGGTACTCGATGGGGAAGA (dA*dT*dG*dG*dT*dA*dC*dT*dC*dG*dA*dT*dG*dG*dG*dG*dA*dA*dG*dA) [AS-II-439-20]
Reduced relative colony forming efficiency, expressed as % inhibition, T24 [1]: 67.84%
Reduced relative colony forming efficiency, expressed as % inhibition, HCT116 [2]: 64.7%
Reduced relative colony forming efficiency, expressed as % inhibition, A549 (A549 lung cell carcinoma): 76.46%
Reduced relative colony forming efficiency, expressed as % inhibition, MIA PaCa-2 [3]: 92.69%
Reduced relative colony forming efficiency, expressed as % inhibition, PC-3 [4]: 77.66%
Reduced relative colony forming efficiency, expressed as % inhibition, HepG2 [5]: 73.04%

CAAATGGGTTCTCTACTCTG (DNA, all phosphorothioate, methylation of C not given here) [AS-II-1217-20]
Reduced relative colony forming efficiency, expressed as % inhibition, T24 [1]: 66.36%
Reduced relative colony forming efficiency, expressed as % inhibition, HCT116 [2]: 68.68%
Reduced relative colony forming efficiency, expressed as % inhibition, A549 (A549 lung cell carcinoma): 91.49%
Reduced relative colony forming efficiency, expressed as % inhibition, MIA PaCa-2 [3]: 34.85%
Reduced relative colony forming efficiency, expressed as % inhibition, PC-3 [4]: 81.03%

CCAGCACTATAAACAGACAG (DNA, all phosphorothioate, methylation of C not given here) [AS-II-1517-20]
Reduced relative colony forming efficiency, expressed as % inhibition, PC-3 [4]: 91.75%

CCGTGGGCTCCTGGAAGATC (dC*dC*dG*dT*dG*dG*dG*dC*dT*dC*dC*dT*dG*dG*dA*dA*dG*dA*dT*dC; antisense) [AS-II-344-20]
Reduced relative colony forming efficiency, expressed as % inhibition, PC-3 [4]: 80.06%

CCTCTGATACTCGCCTACTC (DNA, all phosphorothioate, methylation of C not given here) [AS-II-1288-20]
Reduced relative colony forming efficiency, expressed as % inhibition, T24 [1]: 56.75%
Reduced relative colony forming efficiency, expressed as % inhibition, HCT116 [2]: 66.43%
Reduced relative colony forming efficiency, expressed as % inhibition, A549 (A549 lung cell carcinoma): 61.04%
Reduced relative colony forming efficiency, expressed as % inhibition, MIA PaCa-2 [3]: 80.71%
Reduced relative colony forming efficiency, expressed as % inhibition, PC-3 [4]: 93.55%
Reduced relative colony forming efficiency, expressed as % inhibition, HepG2 [5]: 80.41%

CGGCTCATCCTCCACGC (dC*dG*dG*dC*dT*dC*dA*dT*dC*dC*dT*dC*dC*dA*dC*dG*dC) [AS-II-391-17]
Reduced relative colony forming efficiency, expressed as % inhibition, MIA PaCa-2 [3]: 26.35%
Reduced relative colony forming efficiency, expressed as % inhibition, PC-3 [4]: 93.25%
Reduced relative colony forming efficiency, expressed as % inhibition, HepG2 [5]: 60.64%

GAAACCAAATAAATCAAGCT (DNA, all phosphorothioate, methylation of C not given here) [AS-II-1790-20]
Reduced relative colony forming efficiency, expressed as % inhibition, PC-3 [4]: 87.86%

GAAGCCATAGAAACAGCGGG (antisense; DNA, all phosphorothioate, methylation of C not given here) [AS-II-667-20]
Reduced relative colony forming efficiency, expressed as % inhibition, T24 [1]: 70.48%
Reduced relative colony forming efficiency, expressed as % inhibition, HCT116 [2]: 76.9%
Reduced relative colony forming efficiency, expressed as % inhibition, A549 (A549 lung cell carcinoma): 70.3%
Reduced relative colony forming efficiency, expressed as % inhibition, MIA PaCa-2 [3]: 85.26%
Reduced relative colony forming efficiency, expressed as % inhibition, PC-3 [4]: 91.8%
Reduced relative colony forming efficiency, expressed as % inhibition, HepG2 [5]: 88.23%

GAAGTCAGCATCCAAGGTAA (DNA, all phosphorothioate, methylation of C not given here) [AS-II-1342-20]
Reduced relative colony forming efficiency, expressed as % inhibition, T24 [1]: 59.76%
Reduced relative colony forming efficiency, expressed as % inhibition, HCT116 [2]: 73.74%
Reduced relative colony forming efficiency, expressed as % inhibition, A549 (A549 lung cell carcinoma): 65.67%
Reduced relative colony forming efficiency, expressed as % inhibition, MIA PaCa-2 [3]: 73.77%
Reduced relative colony forming efficiency, expressed as % inhibition, PC-3 [4]: 89.84%
Reduced relative colony forming efficiency, expressed as % inhibition, HepG2 [5]: 82.2%

GACGGCTGGGACAGGGTGCA (antisense dG*dA*dC*dG*dG*dC*dT*dG*dG*dG*dA*dC*dA*dG*dG*dG*dT*dG*dC*dA) [AS-II-134-20]
Reduced relative colony forming efficiency, expressed as % inhibition, PC-3 [4]: 77.51%

GCATCCAAGGTAAAAGAATT (DNA, all phosphorothioate, methylation of C not given here) [AS-II-1335-20]
Reduced relative colony forming efficiency, expressed as % inhibition, T24 [1]: 59.95%
Reduced relative colony forming efficiency, expressed as % inhibition, HCT116 [2]: 67.87%
Reduced relative colony forming efficiency, expressed as % inhibition, A549 (A549 lung cell carcinoma): 78.59%
Reduced relative colony forming efficiency, expressed as % inhibition, MIA PaCa-2 [3]: 78.78%
Reduced relative colony forming efficiency, expressed as % inhibition, PC-3 [4]: 90.04%
Reduced relative colony forming efficiency, expressed as % inhibition, HepG2 [5]: 72.98%

GCGGCGGGGGTTTTCTCTCA (dG*dC*dG*dG*dC*dG*dG*dG*dG*dG*dT*dT*dT*dT*dC*dT*dC*dT*dC*dA; antisense) [AS-II-412-20]
Reduced relative colony forming efficiency, expressed as % inhibition, T24 [1]: 22.2%
Reduced relative colony forming efficiency, expressed as % inhibition, HCT116 [2]: 27.98%
Reduced relative colony forming efficiency, expressed as % inhibition, A549 (A549 lung cell carcinoma): 43.78%
Reduced relative colony forming efficiency, expressed as % inhibition, MIA PaCa-2 [3]: 55.25%
Reduced relative colony forming efficiency, expressed as % inhibition, PC-3 [4]: 73.96%
Reduced relative colony forming efficiency, expressed as % inhibition, HepG2 [5]: 26.23%

TCAGCATCCAAGGTAAAAGA (DNA, all phosphorothioate, methylation of C not given here) [AS-II-1338-20]
Reduced relative colony forming efficiency, expressed as % inhibition, T24 [1]: 63.16%
Reduced relative colony forming efficiency, expressed as % inhibition, HCT116 [2]: 74.73%
Reduced relative colony forming efficiency, expressed as % inhibition, A549 (A549 lung cell carcinoma): 63.93%
Reduced relative colony forming efficiency, expressed as % inhibition, MIA PaCa-2 [3]: 79.17%
Reduced relative colony forming efficiency, expressed as % inhibition, PC-3 [4]: 93.75%
Reduced relative colony forming efficiency, expressed as % inhibition, HepG2 [5]: 80.41%

TCCTCGCGGTCTTGCTGGCC (dT*dC*dC*dT*dC*dG*dC*dG*dG*dT*dC*dT*dT*dG*dC*dT*dG*dG*dC*dC; antisense) [AS-II-323-20]
Reduced relative colony forming efficiency, expressed as % inhibition, HCT116 [2]: 55.8%
Reduced relative colony forming efficiency, expressed as % inhibition, A549 (A549 lung cell carcinoma): 91.24%
Reduced relative colony forming efficiency, expressed as % inhibition, MIA PaCa-2 [3]: 97.55%
Reduced relative colony forming efficiency, expressed as % inhibition, PC-3 [4]: 79.76%
Reduced relative colony forming efficiency, expressed as % inhibition, HepG2 [5]: 96.39%

TGGGACAGGGTGCACGGGCG (antisense dT*dG*dG*dG*dA*dC*dA*dG*dG*dG*dT*dG*dC*dA*dC*dG*dG*dG*dC*dG) [AS-II-130-20]
Reduced relative colony forming efficiency, expressed as % inhibition, T24 [1]: 51.94%
Reduced relative colony forming efficiency, expressed as % inhibition, HCT116 [2]: 57.98%
Reduced relative colony forming efficiency, expressed as % inhibition, A549 (A549 lung cell carcinoma): 86.48%
Reduced relative colony forming efficiency, expressed as % inhibition, MIA PaCa-2 [3]: 82.11%
Reduced relative colony forming efficiency, expressed as % inhibition, PC-3 [4]: 74.66%
Reduced relative colony forming efficiency, expressed as % inhibition, HepG2 [5]: 94.28%

TTCTGGCAAAAGGTGATACT (DNA, all phosphorothioate, methylation of C not given here) [AS-II-1538-20]
Reduced relative colony forming efficiency, expressed as % inhibition, T24 [1]: 67.29%
Reduced relative colony forming efficiency, expressed as % inhibition, HCT116 [2]: 51.28%
Reduced relative colony forming efficiency, expressed as % inhibition, A549 (A549 lung cell carcinoma): 90.34%
Reduced relative colony forming efficiency, expressed as % inhibition, MIA PaCa-2 [3]: 50.62%
Reduced relative colony forming efficiency, expressed as % inhibition, PC-3 [4]: 84.71%
Reduced relative colony forming efficiency, expressed as % inhibition, HepG2 [5]: 96.84%

TTGTGTACCAGGTGTTTGAA (DNA, all phosphorothioate, methylation of C not given here) [AS-II-1023-20]
Reduced relative colony forming efficiency, expressed as % inhibition, T24 [1]: 58.26%
Reduced relative colony forming efficiency, expressed as % inhibition, A549 (A549 lung cell carcinoma): 34.52%
Reduced relative colony forming efficiency, expressed as % inhibition, MIA PaCa-2 [3]: 42.82%
Reduced relative colony forming efficiency, expressed as % inhibition, PC-3 [4]: 87.63%

Reference: patent US7405205B2, “Antitumor antisense sequences directed against R1 and R2 components of ribonucleotide reductase” (Lorus Therapeutics Inc., priority 1996, dated 2008)
